In patent US20110318396A1, “DERMATOLOGICAL/COSMETIC COMPOSITIONS COMPRISING A RETINOID AND BENZOYL PEROXIDE” (Galderma Research & Development, priority 2006, published 2011):
Like-named read-outs stand apart in the source and are kept apart here. Each block holds one compound with its values, some of them ahead of it.

What was measured:
[1] = in presence of the formulation based on benzoyl peroxide, cited from earlier work; for Retinoid degraded: calculated
[2] = Chemical stability: assay of adapalene by internal calibration in HPLC; assay type: physicochemical; conditions: composition of Example 2 a); AT; T 3 months
From the text: Assay of the active by internal calibration in HPLC.
At the starting time (T0) the composition is considered to contain 100% of adapalene. Concentration of adapalene measured in % relative to T0: […]

[3] = cited from earlier work; for Degradation time: 40° C.
[4] = in PEG 400 and ethanol; cited from earlier work
[5] = Chemical stability: assay of benzoyl peroxide by internal calibration in HPLC; assay type: physicochemical; conditions: composition of Example 2 a)
From the text: Benzoyl Peroxide: Assay of the active by internal calibration in HPLC. At the starting time (T0) the composition is considered to contain 100% of benzoyl peroxide. Concentration of benzoyl peroxide measured in % relative to T0: […]

Concentration of adapalene measured in % relative to T0 [2]: 97.7%
Compound: COc1ccc(-c2ccc3cc(C(=O)O)ccc3c2)cc1C12CC3CC(CC(C3)C1)C2 [Adapalene, 6-(3-(1-adamantyl)-4-methoxyphenyl)-2-naphthoic acid]
Degradation of the retinoid ([1]; over 24 hours): no degradation

Compound: O=C(OOC(=O)c1ccccc1)c1ccccc1 [Benzoyl Peroxide, benzoyl peroxide]
Degradation time ([3]; in solution in PEG 400 (0.5 mg/g)): 1.4 days
Degradation time ([3]; in solution in ethanol): 29 days
Degradation time ([3]; in solution in propylene glycol): 53 days
Degradation in suspension (dispersed form) ([3]; in water and propylene glycol, kept for 90 days): not degraded
Solubility [4]: particularly soluble
Concentration of benzoyl peroxide measured in % relative to T0 ([5]; 40° C., T 1 month): 96.3%
Concentration of benzoyl peroxide measured in % relative to T0 ([5]; 40° C., T 2 months): 81.6%
Concentration of benzoyl peroxide measured in % relative to T0 ([5]; 40° C., T 3 months): 88.7%
Concentration of benzoyl peroxide measured in % relative to T0 ([5]; AT, T 0): 99.2%
Concentration of benzoyl peroxide measured in % relative to T0 ([5]; AT, T 3 months): 94.8%

Compound: CC1=C(/C=C/C(C)=C/C=C/C(C)=C/C(=O)O)C(C)(C)CCC1 [tretinoin]
Retinoid degraded ([1]; in 2 hours): 50%
Retinoid degraded ([1]; in 24 hours): 95%
